The record followed here is BindingDB's records for doi:10.1016/j.bmcl.2006.12.025 (Pharmacopeia Drug Discovery, 2007).

Sequence of Prostacyclin receptor (P43119 whole entry): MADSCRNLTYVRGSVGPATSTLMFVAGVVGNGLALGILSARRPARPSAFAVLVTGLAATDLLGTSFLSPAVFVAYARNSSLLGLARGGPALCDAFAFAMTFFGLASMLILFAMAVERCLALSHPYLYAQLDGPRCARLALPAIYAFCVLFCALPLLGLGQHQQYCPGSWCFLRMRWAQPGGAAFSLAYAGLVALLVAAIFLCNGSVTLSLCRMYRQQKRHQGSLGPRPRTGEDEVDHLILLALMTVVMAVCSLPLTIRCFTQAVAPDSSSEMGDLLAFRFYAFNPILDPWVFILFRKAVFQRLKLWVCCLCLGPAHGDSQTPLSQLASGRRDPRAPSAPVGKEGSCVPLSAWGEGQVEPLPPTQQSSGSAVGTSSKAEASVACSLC

The first assay addresses Prostacyclin receptor (Homo sapiens, UniProt P43119). The assay is described as follows: IP Receptor Filter Binding Assay and cAMP Assay. As to conditions: pH 7.4; 22 °C. The text has this: IP receptor binding activity was quantified via a filter binding assay measuring displacement of [3H]-Iloprost binding to human platelet membranes. Raw data were fit to the […] to calculate IC50 values. EC50/IC50 values were obtained from functional antagonism assay by measuring the inhibition of cAMP production induced by Iloprost in human erythroleukemia (HEL) cells using a Perkin-Elmer LANCETM cAMP detection kit.
In the case of `CC(=O)Nc1cccc(-c2ccc(Cc3ocnc3C(=O)NC(C)c3ccccc3)cc2)c1` (racemic) [5-{[4-(3-acetamidophenyl)phenyl]methyl}-N-(1-phenylethyl)-1,3-oxazole-4-carboxamide], the IC50 (as a rule, the point on the concentration scale where inhibition reaches its midpoint) came out at 278 nM.
Take `CC(=O)Nc1cccc(-c2ccc(Cc3ocnc3C(=O)NCCc3ccccc3)cc2)c1` [5-{[4-(3-acetamidophenyl)phenyl]methyl}-N-(2-phenylethyl)-1,3-oxazole-4-carboxamide]: the IC50 came to 138 nM.
Still for that read-out and setting: with `CC(=O)Nc1cccc(-c2ccc(Cc3ocnc3C(=O)NC(C)C)cc2)c1` [5-{[4-(3-acetamidophenyl)phenyl]methyl}-N-(propan-2-yl)-1,3-oxazole-4-carboxamide] the figure was 3580 nM; with `CC(=O)Nc1cccc(-c2ccc(Cc3ocnc3C(=O)NCCc3ccccn3)cc2)c1` [5-{[4-(3-acetamidophenyl)phenyl]methyl}-N-[2-(pyridin-2-yl)ethyl]-1,3-oxazole-4-carboxamide], 1010 nM; with `CC(=O)Nc1cccc(-c2ccc(Cc3ocnc3C(=O)NCCc3cccnc3)cc2)c1` [5-{[4-(3-acetamidophenyl)phenyl]methyl}-N-[2-(pyridin-3-yl)ethyl]-1,3-oxazole-4-carboxamide], 741 nM.
The compound `CC(=O)Nc1cccc(-c2ccc(Cc3ocnc3C(=O)NCCc3ccncc3)cc2)c1` [5-{[4-(3-acetamidophenyl)phenyl]methyl}-N-[2-(pyridin-4-yl)ethyl]-1,3-oxazole-4-carboxamide] displayed an IC50 of 476 nM.
Still for that read-out and setting: with `CC(=O)Nc1cccc(-c2ccc(Cc3ocnc3C(=O)N[C@H]3C[C@@H]3c3ccccc3)cc2)c1` [5-{[4-(3-acetamidophenyl)phenyl]methyl}-N-[(1S,2R)-2-phenylcyclopropyl]-1,3-oxazole-4-carboxamide] the figure was 358 nM.
Still for that read-out and setting: with `CC(=O)Nc1cccc(-c2ccc(Cc3ocnc3C(=O)NC[C@H](C)c3ccccc3)cc2)c1` [5-{[4-(3-acetamidophenyl)phenyl]methyl}-N-[(2R)-2-phenylpropyl]-1,3-oxazole-4-carboxamide] the figure was 51 nM.
The same measure, in the same setting: the same measure for `CC(=O)Nc1cccc(-c2ccc(Cc3ocnc3C(=O)NC[C@@H](C)c3ccccc3)cc2)c1` [5-{[4-(3-acetamidophenyl)phenyl]methyl}-N-[(2S)-2-phenylpropyl]-1,3-oxazole-4-carboxamide]: 296 nM; for `CNC(=O)c1ncoc1Cc1ccc(-c2cccc(NC(C)=O)c2)cc1` [5-{[4-(3-acetamidophenyl)phenyl]methyl}-N-methyl-1,3-oxazole-4-carboxamide]: 3310 nM; for `CC(=O)Nc1cccc(-c2ccc(Cc3ocnc3C(=O)N(C)CCc3ccccc3)cc2)c1` [5-{[4-(3-acetamidophenyl)phenyl]methyl}-N-methyl-N-(2-phenylethyl)-1,3-oxazole-4-carboxamide]: 2130 nM.
Take `CC(=O)Nc1cccc(-c2ccc(Cc3ocnc3C(=O)Nc3ccccc3)cc2)c1` [5-{[4-(3-acetamidophenyl)phenyl]methyl}-N-phenyl-1,3-oxazole-4-carboxamide]: the IC50 was found to be 828 nM.
In the case of `CC(=O)Nc1cccc(-c2ccc(Cc3ocnc3C(=O)N[C@H](Cc3ccccc3)C(=O)O)cc2)c1` [(2R)-2-[(5-{[4-(3-acetamidophenyl)phenyl]methyl}-1,3-oxazol-4-yl)formamido]-3-phenylpropanoic acid], the IC50 is 831 nM.
On the same count and under the same terms, with `CC(=O)Nc1cccc(-c2ccc(Cc3ocnc3C(=O)N[C@@H](Cc3ccccc3)C(=O)O)cc2)c1` [(2S)-2-[(5-{[4-(3-acetamidophenyl)phenyl]methyl}-1,3-oxazol-4-yl)formamido]-3-phenylpropanoic acid] the figure was 16 nM.
Same read-out and setting: with `CC(=O)Nc1cccc(-c2ccc(Cc3ocnc3C(=O)NCCN(C)C)cc2)c1` [N-[2-(dimethylamino)ethyl]-5-{[4-(3-acetamidophenyl)phenyl]methyl}-1,3-oxazole-4-carboxamide] the figure was 3310 nM.
Still for that read-out and setting: with `CC(=O)Nc1cccc(-c2ccc(Cc3ocnc3C(=O)NCc3ccccc3)cc2)c1` [N-benzyl-5-{[4-(3-acetamidophenyl)phenyl]methyl}-1,3-oxazole-4-carboxamide] the figure was 66 nM.

The assay is the same for the next values; noted with them: pH 7.4; 22 °C; read-out: IC50.
In the case of `CC(=O)Nc1cccc(-c2ccc(Cc3ocnc3C(=O)NC(C)C)cc2)c1` [5-{[4-(3-acetamidophenyl)phenyl]methyl}-N-(propan-2-yl)-1,3-oxazole-4-carboxamide], the IC50 amounted to 12400 nM.
